Assay results from PMC10089289, “Well-Defined Heparin Mimetics Can Inhibit Binding of the Trimeric Spike of SARS-CoV-2 in a Length-Dependent Manner” (JACS Au, 2023).

Biological target: SARS-CoV-2 Delta RBD binding to Vero E6 cells (Severe acute respiratory syndrome coronavirus 2, UniProt P0DTC2, L452R/T478K)
Assay type: cell-based

## NCCCCCOC1OC(COS(=O)(=O)O)C(OC2OC(C(=O)O)C(OC3OC(COS(=O)(=O)O)C(OC4OC(C(=O)O)C(OC5OC(COS(=O)(=O)O)C(OC6OC(C(=O)O)C(O)C(O)C6O)C(O)C5NS(=O)(=O)O)C(O)C4OS(=O)(=O)O)C(O)C3NS(=O)(=O)O)C(O)C2OS(=O)(=O)O)C(O)C1NS(=O)(=O)O (stereo not shown) [Compound 1, GlcA-GlcNS6S-IdoA2S-GlcNS6S-IdoA2S-GlcNS6S]
  Inhibition of delta RBD binding to Vero E6 cells: does not display inhibition
